According to ChEMBL document CHEMBL1131961, “Protein kinase C modulators bearing dicarba-CLOSO-dodecaborane as a hydrophobic pharmacophore” (Bioorg Med Chem Lett, 1999):

What was measured:
HL-60 = test: Inhibition of HL-60 monocyte cell proliferation; format: functional; settings: Homo sapiens, read-out: ED50 (the source's name)
[1] = molecular target: Protein kinase C delta type (Homo sapiens, UniProt Q05655); test: Displacement of [3H]-PDBu from human recombinant Protein kinase C delta
Protein kinase C delta type, sequence (Q05655 whole entry): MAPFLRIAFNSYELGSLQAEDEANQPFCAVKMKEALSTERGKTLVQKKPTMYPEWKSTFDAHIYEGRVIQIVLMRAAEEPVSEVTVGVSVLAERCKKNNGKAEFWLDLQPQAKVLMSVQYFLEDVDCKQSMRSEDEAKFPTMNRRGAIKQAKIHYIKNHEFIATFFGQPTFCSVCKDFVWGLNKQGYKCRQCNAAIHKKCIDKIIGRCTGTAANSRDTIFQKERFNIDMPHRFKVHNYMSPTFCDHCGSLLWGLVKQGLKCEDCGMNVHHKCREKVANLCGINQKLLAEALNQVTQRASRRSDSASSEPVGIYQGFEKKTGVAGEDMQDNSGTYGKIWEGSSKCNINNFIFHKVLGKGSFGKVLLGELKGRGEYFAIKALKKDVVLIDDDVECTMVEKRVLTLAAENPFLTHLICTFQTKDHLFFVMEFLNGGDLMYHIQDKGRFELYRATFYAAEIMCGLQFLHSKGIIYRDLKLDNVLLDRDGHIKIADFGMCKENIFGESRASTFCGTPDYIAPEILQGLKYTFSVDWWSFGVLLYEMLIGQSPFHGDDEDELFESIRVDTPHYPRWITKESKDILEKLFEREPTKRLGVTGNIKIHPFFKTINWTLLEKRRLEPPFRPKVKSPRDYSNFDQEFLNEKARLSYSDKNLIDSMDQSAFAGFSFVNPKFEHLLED

CCCCCCCCCCc1ccc2c(c1)N(C)[C@@H](C(C)C)C(=O)N[C@H](CO)C2
EC50 (HL-60): 5 nM | Ki [1]: 1.8 nM
